Key:
[1] = tested on: rabbit aorta; test: Vascular contraction of rabbit aorta induced by PDGF; parameters: species or system New Zealand rabbit; settings: Oryctolagus cuniculus, 10^-5 M, preincubated 15 minutes
Experimental: (§1) Studies are carried out on rings, 3 mm in length, […] The vascular rings are immersed in a normal physiological solution or in a physiological solution lacking calcium (+0.2 mM of the chelating agent EGTA), which is thermostatically regulated at 37° C. and aerated with a 95% O2 +5% CO2 mixture. The rings are linked to a STATHAM tension sensor (UC2-GOULD). The optimal tension for each vessel is applied and a stabilization period of 90 min is observed for the preparations. a) Antivasoconstrictive activity of the compounds of the invention in a physiological medium.

[2] = tested on: rabbit aortas; test: Contraction of rabbit aortas induced by noradrenaline in a medium without calcium; parameters: species or system New Zealand rabbit; settings: Oryctolagus cuniculus, 0.5 h, rabbit aorta, incubated 30 minutes
Experimental: as §1, with “b)” for “a)”, “medium without calcium.” for “physiological medium.”

[3] = tested on: rabbit aorta; test: Contraction of rabbit aorta induced by angiotensin II in a medium without calcium; parameters: species or system New Zealand rabbit; settings: Oryctolagus cuniculus, 10^-5 M, medium lacking calcium
Experimental: as §1, with “b)” for “a)”, “medium without calcium.” for “physiological medium.”

[4] = tested on: rabbit aorta; test: Contraction of rabbit aorta induced by endothelin in a medium without calcium; parameters: species or system New Zealand rabbit; settings: Oryctolagus cuniculus, 10^-5 M, medium lacking calcium
Experimental: as §1, with “b)” for “a)”, “medium without calcium.” for “physiological medium.”

[5] = tested on: Rabbit iliac artery; test: Contraction of rabbit iliac artery induced by caffeine in a medium without calcium; parameters: species or system New Zealand rabbit; settings: Oryctolagus cuniculus, 10^-5 M, medium lacking calcium
Experimental: as §1, with “b)” for “a)”, “medium without calcium.” for “physiological medium.”

[6] = tested on: guinea pig left auricle; test: Veratridine intoxication of guinea pig left auricle; settings: compound 10^-5 M
Experimental: a) Effect of the compounds of the invention on the intoxication of guinea pig left auricle.
The left auricles are removed from guinea pigs (350-450 g) anesthetized with sodium pentobarbital (30 mg/kg). The auricles are attached to a STATHAM tension sensor (UC2-GOULD) and the initial tension applied is 0.5 grams.
The auricles are electrically stimulated at 1 Hz by means of platinum electrodes. The intoxications are produced either by the addition of ouabain (10^-6 M) or by the addition of veratridine (10^-5 M). The test compounds are added 15 minutes before adding the toxic agent.

[7] = tested on: isolated heart; test: Isolated heart subjected to hypoxia-reoxygenation; parameters: species or system WISTAR rat; settings: after 30 minutes of reoxygenation
Experimental: The heart is removed from WISTAR rats (325-375 g). The heart is rapidly perfused according to the technique of LANGENDORFF at a constant pressure of 101.310^2 Pa and electrically stimulated at 5 Hz. Isovolumetric contractions are recorded by means of a polyethylene ballonet linked to a pressure sensor (P23-GOULD) introduced into the left ventricle and inflated so as to obtain a diastolic pressure of between 6.710^2 and 13.310^2 Pa. c) Protective effect of the compounds of the invention on an isolated heart subjected to hypoxia-reoxygenation. An experimental procedure similar to that described in the preceding test is followed, the ischemia-reperfusion stage being replaced by a 60 min hypoxia produced by the administration of a 95% N2 +5% CO2 gaseous mixture during this period and followed by a 30 min reoxygenation. The test compounds are incubated for 15 min before and during the period of hypoxia.

[8] = tested on: pressor effects of phenylephrine, angiotensin II and vasopressin; test: Cardiovascular reactivity to vasopressors in wakeful rats, intravenous administration; type: in vivo, WISTAR rat; settings: 10 mg/kg intravenously
Experimental: a) Effects of the compounds of the invention, administered intravenously, on cardiovascular reactivity to various vasopressors.
After a 30 to 60 min period of stabilization of wakeful WISTAR rats, a range of concentrations of phenylephrine (between 0 and 16 μg/kg) is injected intravenously.
Reading of the mean blood pressure and heart rate is carried out at the point where the pressor effect reaches its maximum. After a washing time of at least 2 hours, the test compound is administered intravenously (10 mg/kg) followed 15 minutes later by a new range of phenylephrine.
The same procedure is used to study the compounds of the invention for the pressor effects induced by angiotensin II (0 to 200 ng/kg) and vasopressin (0 to 200 ng/kg). These studies are carried out on different groups of animals.

[9] = tested on: reperfusion arrhythmias; test: Reperfusion arrhythmias after coronary ligature in rats; type: in vivo, WISTAR rat; settings: 2 mg/kg intravenous
Experimental: C/ Action of the compounds of the invention on reperfusion arrhythmias.
A thoracotomy and a coronary ligature are carried out on WISTAR rats. After stabilization for 10 min, 2 mg/kg of the test compound are administered intravenously. The blood pressure, the heart rate and the electrocardiogram are recorded. Five minutes after injecting the product, the coronary ligature is tightened.
After 5 minutes of stenosis, the ligature is removed and the electrocardiogram as well as the blood pressure are recorded for 10 consecutive minutes. The delay in the appearance of the various rhythm disorders as well as the mortality are measured.

[10] = tested on: smooth muscle cells of the aorta; test: Proliferation rate after endothelial denudation of the aorta (3H-thymidine incorporation); type: in vivo, WISTAR rat; settings: 10 mg/kg orally, daily
Experimental: D/ Effect of the compounds of the invention on the proliferation rate after endothelial denudation. […] After pretreatment for 6 days (J6), denudation of the aortic endothelium of the animals is performed according to the following method: After anesthetizing the animal with methohexital (Brietal, 60 mg/kg intraperitoneally), an embolectomy probe (Fogarty 2F) is introduced into the aorta through the left carotid. Aortic deendothelialization is achieved by three successive passages of the probe. Three days after the endothelial denudation (J9), the rats are sacrificed and the aorta is removed, incubated in a physiological solution for 1 hour at 37° C., and then transferred into a ^3 H-thymidine-enriched Krebs- Henseleit solution (specific activity: […]) for 1 hour at 37° C. This is followed by a one-hour post-incubation in a Krebs-Henseleit solution lacking ^3 H-thymidine. After washing in a Tris-EDTA buffer, the proliferation rate is calculated from the incorporation of 3H-thymidine. [drawing 17]

With CN(CC1CCN(CCCOc2ccc(F)cc2)CC1)S(=O)(=O)c1cccc2cnccc12.Cl.Cl [Example 17, N-Methyl-N-{[1-[3-(p-fluorophenoxy)propyl]-4-piperidyl]methyl}-5-isoquinolinesulfonamide dihydrochloride] the inhibition at 10 µM [1] was 30%, the inhibition at 1 µM ([2]; compound 10^-6 M) was 90% and the inhibition at 0.1 µM ([2]; compound 10^-7 M) was 40%. The inhibition at 10 µM [3] was 21%, the inhibition at 10 µM [4] was 67% and the inhibition at 10 µM [5] was 63%. For the same compound, the “% contraction” value ([6]; 5 min) was 218.8 ± 50.8%, the “% contraction” value ([6]; 15 min) was 181 ± 51% and the “Contracture (%)” value ([6]; 15 min) was 0%. For the same compound, the “Contracture (%)” value ([6]; 30 min) was 0%, the “% contraction” value ([6]; 60 min) was 157.1 ± 42.6% and the “Contracture (%)” value ([6]; 60 min) was 0%. The “increase of the contraction relative to the control hearts” value [7] was “more than 100%”, the “reduction of the pressure effect of phenylephrine” value [8] was 81% and the “delay in the appearance of ventricular extrasystoles and tachycardias” value [9] was “very substantially delays the appearance of ventricular extrasystoles and tachycardias”. The “prevention of the appearance of ventricular fibrillations” value [9] was 100%, the mortality rate ([9]; control 4 deaths out of 9) was “zero” and the “reduction of the proliferation of smooth muscle cells” value [10] was 40%.

From patent publication US5208243A, “5-isoquinolinesulfonamides” (Adir et Compagnie, priority 1991, dated 1993)
